Source: PMC4274170 (Toxicology letters, 2014)
Like-named read-outs stand apart in the source and are kept apart here.

What was measured:
In vitro metabolism [1] = experiment: In vitro metabolism
in vitro [2] = settings: male, Sprague-Dawley, rat, pH 7.4
[3] = human
in vitro [4] = settings: female, B6129SF1/J, mouse, pH 7.4
[5] = mouse, microsomes
[6] = rat, microsomes
in vitro [7] = settings: female, human, pH 7.4, Km
In vitro metabolism [8] = experiment: In vitro metabolism; remark: listed apart in the source
In vitro metabolism [9] = type: in vitro ADME, mouse
humans = settings: ref WHO, 2010, 2012; cited from earlier work
In vitro metabolism [10] = settings: female human
[11] = pregnant relative to naïve female mice

c1ccc2c(c1)cc1ccc3cccc4ccc2c1c34 [B[a]P, benzo[a]pyrene]
KM in male rats exceeded that in female mice (In vitro metabolism [1]; male rat relative to female mouse): 3.6 fold | Km (in vitro [2]): 18 ± 12.9 µM | B[a]P CLINT exceeded DBC CLINT, margin (in vitro half-life method) ([3]; female, microsomes, pH 7.4): 13.3 fold | CLINT for B[a]P exceeded that of DBC, margin (Michaelis-Menten regressions) ([3]; female, microsomes, pH 7.4): 3.3 fold | Km ([3]; female, pH 7.4): 0.725 ± 0.581 µM | Organism level CLINT, MM ([3]; microsomes): 27.16 ± 29.98 ml/min/kg body weight | Organism level CLINT, t 1/2 ([3]; microsomes): 54.69 ml/min/kg body weight | Tissue level CLINT, t 1/2 ([3]; microsomes): 2.13 ml/min/g tissue | Km (in vitro [4]): 4.97 ± 1.96 µM | B[a]P CLINT exceeded DBC CLINT, margin (in vitro half-life method) ([5]; female, B6129SF1/J, pH 7.4): 10.6 fold | CLINT for B[a]P exceeded that of DBC, margin (Michaelis-Menten regressions) ([5]; female, B6129SF1/J, pH 7.4): 9.0 fold | Organism level CLINT, MM [5]: 1445.2 ± 778.0 ml/min/kg body weight | Organism level CLINT, t 1/2 [5]: 2699.0 ± 1803.4 ml/min/kg body weight | Tissue level CLINT, t 1/2 [5]: 48.53 ± 32.79 ml/min/g tissue | B[a]P CLINT exceeded DBC CLINT, margin (in vitro half-life method) ([6]; male, Sprague-Dawley, pH 7.4): 1.4 fold | CLINT for B[a]P exceeded that of DBC, margin (Michaelis-Menten regressions) ([6]; male, Sprague-Dawley, pH 7.4): 2.6 fold | Organism level CLINT, MM [6]: 65.90 ± 71.68 ml/min/kg body weight | Organism level CLINT, t 1/2 [6]: 51.34 ± 22.19 ml/min/kg body weight | Tissue level CLINT, t 1/2 [6]: 1.40 ± 0.61 ml/min/g tissue | Km (in vitro [7]): 0.73 µM

c1ccc2c(c1)cc1ccc3cccc4c5ccccc5c2c1c34 [DBC, dibenzo[def,p]chrysene]
Vmax (In vitro metabolism [1]; male rat liver microsomes, Michaelis-Menten regression of substrate depletion): 0.167 ± 0.064 nmol/min/mg MSP | Tissue level CLINT, MM (In vitro metabolism [1]; male rat, Michaelis-Menten method (Vmax/Km scaled)): 0.69 ± 0.73 ml/min/g tissue | Organism level CLINT, MM (In vitro metabolism [1]; male rat, Michaelis-Menten method, liver weight 36.6 g per kg body weight): 25.14 ± 26.85 ml/min/kg body weight | Tissue level CLINT, t 1/2 (In vitro metabolism [1]; male rat, in vitro half-life method): 1.01 ± 0.30 ml/min/g tissue | Organism level CLINT, t 1/2 (In vitro metabolism [1]; male rat, in vitro half-life method, liver weight 36.6 g per kg body weight): 37.05 ± 10.96 ml/min/kg body weight | Km (In vitro metabolism [1]; male, Sprague-Dawley, rat, pH 7.4): 7.28 ± 4.99 µM | Km (In vitro metabolism [8]; female, B6129SF1/J, mouse, pH 7.4): 6.63 ± 1.01 µM | Vmax (In vitro metabolism [8]; naïve mouse liver microsomes, Michaelis-Menten regression of substrate depletion): 0.646 ± 0.055 nmol/min/mg MSP | Tissue level CLINT, MM (In vitro metabolism [8]; naïve mouse, Michaelis-Menten method (Vmax/Km scaled)): 2.92 ± 0.71 ml/min/g tissue | Organism level CLINT, MM (In vitro metabolism [8]; naïve mouse, Michaelis-Menten method, liver weight 55 g per kg body weight): 160.71 ± 38.94 ml/min/kg body weight | Tissue level CLINT, t 1/2 (In vitro metabolism [8]; naïve mouse, in vitro half-life method): 4.59 ± 0.53 ml/min/g tissue | Organism level CLINT, t 1/2 (In vitro metabolism [8]; naïve mouse, in vitro half-life method, liver weight 55 g per kg body weight): 252.18 ± 29.26 ml/min/kg body weight | Km (In vitro metabolism [9]; female, B6129SF1/J, mouse, liver microsomes of pregnant (GD17) mice, pH 7.4): 3.28 ± 1.38 µM | Tissue level CLINT, MM (In vitro metabolism [9]; pregnant mouse, Michaelis-Menten method (Vmax/Km scaled)): 3.81 ± 2.28 ml/min/g tissue | Organism level CLINT, MM (In vitro metabolism [9]; pregnant mouse, Michaelis-Menten method, liver weight 41.8 g per kg body weight): 159.43 ± 95.51 ml/min/kg body weight | Tissue level CLINT, t 1/2 (In vitro metabolism [9]; pregnant mouse, in vitro half-life method): 3.31 ± 1.75 ml/min/g tissue | KM reduced in the pregnant animal (In vitro metabolism [9]; [11]): 51% | VMAX reduced in the pregnant animal (In vitro metabolism [9]; [11]): 35% | higher tissue level CLINT in the pregnant animal (Michaelis-Menten regression method) (In vitro metabolism [9]; [11]): 30% | tissue level CLINT lower in the pregnant animal (in vitro half-life method) (In vitro metabolism [9]; [11]): 28% | IARC classification (humans): Group 2A | Tissue level CLINT, MM (In vitro metabolism [10]; Michaelis-Menten method (Vmax/Km scaled)): 0.32 ± 0.46 ml/min/g tissue | Organism level CLINT, MM (In vitro metabolism [10]; Michaelis-Menten method, liver weight 25.7 g per kg body weight): 8.19 ± 11.73 ml/min/kg body weight | Tissue level CLINT, t 1/2 (In vitro metabolism [10]; in vitro half-life method): 0.16 ml/min/g tissue | Organism level CLINT, t 1/2 (In vitro metabolism [10]; in vitro half-life method, liver weight 25.7 g per kg body weight): 4.23 ml/min/kg body weight
